From article PMC8347595, “N-Skatyltryptamines—Dual 5-HT6R/D2R Ligands with Antipsychotic and Procognitive Potential” (Molecules, 2021)
Read-outs that look alike come from different tables or passages of the source.

What was measured:
Human Serotonin 5-HT6R [1] = target: T1, Human Serotonin 5-HT6R (Homo sapiens, UniProt P50406); assay: 5-HT6R functional assay, antagonistic mode (cAMP induced by 5-CT, 1321N1 cells); type: cell-based
T1 construct: host or cells: 1321N1 (frozen recombinant cells)
Procedure: (§1) The properties of compounds to inhibit cAMP production induced by a 5-HT6R agonist 5-CT (1000 nM) was evaluated. Compounds were tested in triplicate at eight concentrations (10^−11–10^−4 M). The level of cAMP was measured using frozen recombinant 1321N1 cells expressing the Human Serotonin 5-HT6R (PerkinElmer). Total cAMP was measured using the LANCE cAMP Detection Kit (PerkinElmer), according to the manufacturer’s instructions. For quantification of cAMP levels, 2000 cells/well ([…]) were incubated with a mixture of compounds ([…]) for 30 min at room temperature in a 384-well white opaque microtiter plate. After incubation, the reaction was stopped and cells were lysed by the addition of […] of working solution ([…] ULight-anti-cAMP) for 1 h at room temperature. Time-resolved fluorescence resonance energy transfer (TR-FRET) was detected by an Infinite M1000 Pro (Tecan) using instrument settings from the LANCE cAMP Detection Kit manual. […] The agonistic properties of compounds were determined with an analogous procedure, but without stimulation with 5-CT [10, 36].

[2] = Metabolic stability, incubation with mouse liver microsomes; type: in vitro ADME; settings: MLMs, 50 µM, 2 h
Procedure: The murine liver microsomes (MLMs) were purchased from Sigma-Aldrich (St. Louis, MO, USA). To determine metabolic pathways, the tested compounds (50 µM) were incubated with 100 mM Tris-HCl buffer at 37 °C with MLMs (1 mg/mL) and NADPH Regeneration System for 2 h. Reactions were quenched with cold, pure methanol and mixtures were centrifuged 14,000 g for 15 min. The supernatants were analyzed using LCMS. The additional MS ion fragmentation of the product and the substrate were performed to determine the most probable structure of the metabolite.

CYP3A4 = target: T2, CYP3A4 (Homo sapiens, UniProt P08684); assay: CYP3A4 P450-Glo luminescent assay; type: in vitro ADME; settings: compared to ketoconazole; 0.01 to 25 µM
T2 construct: purchased Promega (Madison, WI, USA)
Procedure: The experiments were provided using commercially available luminescent CYP3A4 P450-Glo™ and CYP2D6 P450-Glo™ tests purchased from Promega (Madison, WI, USA). The enzymatic reactions were conducted in polystyrene, flat-bottom Nunc™ MicroWell™ 96-well microplates (Thermo Scientific, Waltham, MA, USA). The assays were carried out according to the procedures provided by the manufacturer, as described previously. Compounds were tested in triplicate at the final concentrations in a range from 0.01 to 25 µM for both isoforms of CYP450. The references of CYP3A4 and CYP2D6 inhibitors (ketoconazole and quinidine, respectively) were tested in a range from 0.001 to 10 µM. Tested compounds were incubated in 100 mM Tris-HCl buffer separately with CYP3A4 and CYP2D6 membranes and the NADPH Regeneration System for 30 min at room temperature in triplicate. The bioluminescent signal was measured after the addition of the Luciferin Detection Reagent by using a microplate reader EnSpire PerkinElmer (Waltham, MA, USA). Both reagents (NADPH Regeneration System and Luciferin Detection Reagent) were purchased from Promega (Madison, WI, USA).

HepG2 cell line = assay: Hepatotoxicity assay, HepG2 viability; type: cell-based; settings: 1 μM, 72 h
Procedure: To estimate the hepatotoxicity of compounds, the hepatoma HepG2 (ATCC® HB-8065TM) cell line was used according to previously described protocols. The CellTiter 96® AQueous Non-Radioactive Cell Proliferation Assay was obtained from Promega (Madison, WI, USA). The compounds were tested in quadruplicate at four concentrations (1–100 µM) for 72 h.

[3] = for permeability in words: PAMPA
in vitro = settings: PAMPA, pH 7.4
D2R [4] = target: T3, D2R (Homo sapiens, UniProt P14416); assay: D2R functional assay, antagonist mode (cAMP, HEK293 cells); type: cell-based; design: expressed in transfected cells
Procedure: The supernatant was aspirated, and the cell pellet was resuspended in stimulation buffer (1 × HBSS, 5 mM HEPES, 0.5 mM IBMX, 0.1% BSA).
The functional properties of compounds were evaluated using the LANCE Ultra cAMP Detection Kit (PerkinElmer). D2 receptors in HEK293 cells are coupled to Gi subtype and decreased cAMP production. […] Each compound was tested in triplicate at eight concentrations (10^−11–10^−4 M).
For quantification of cAMP levels, cells (5 µL) were incubated with 5 µL mixture of compounds (tested ligand and forskolin with 100 nM quinpirole for antagonist binding mode) for 30 min at room temperature in 384-well white opaque microtiter plate (PerkinElmer). After incubation, the reaction was stopped and cells were lysed by the addition of 10 µL working solution (5 µL Eu-cAMP and 5 µL ULight-anti-cAMP). The assay plate was incubated for 1 h at room temperature. Time-resolved fluorescence resonance energy transfer (TR-FRET) signal was detected by an Infinite M1000 Pro (Tecan) using instrument settings from the LANCE Ultra cAMP Detection Kit manual.

5-HT2AR [5] = target: T4, 5-HT2AR (Homo sapiens, UniProt P28223); assay: Radioligand binding assay, [3H]-ketanserin displacement; design: host or cells: CHO-K1; membrane preparation
5-HT6R = 5-HT6R (Homo sapiens, UniProt P50406); assay: Radioligand binding assay, [3H]-LSD displacement
5-HT7R = 5-HT7R (Homo sapiens, UniProt P34969); assay: Radioligand binding assay, [3H]-5-CT displacement
5-HT1AR = target: T5, 5-HT1AR (Homo sapiens, UniProt P08908); assay: Radioligand binding assay, [3H]-8-OH-DPAT displacement
T5 sequence (P08908 1-422): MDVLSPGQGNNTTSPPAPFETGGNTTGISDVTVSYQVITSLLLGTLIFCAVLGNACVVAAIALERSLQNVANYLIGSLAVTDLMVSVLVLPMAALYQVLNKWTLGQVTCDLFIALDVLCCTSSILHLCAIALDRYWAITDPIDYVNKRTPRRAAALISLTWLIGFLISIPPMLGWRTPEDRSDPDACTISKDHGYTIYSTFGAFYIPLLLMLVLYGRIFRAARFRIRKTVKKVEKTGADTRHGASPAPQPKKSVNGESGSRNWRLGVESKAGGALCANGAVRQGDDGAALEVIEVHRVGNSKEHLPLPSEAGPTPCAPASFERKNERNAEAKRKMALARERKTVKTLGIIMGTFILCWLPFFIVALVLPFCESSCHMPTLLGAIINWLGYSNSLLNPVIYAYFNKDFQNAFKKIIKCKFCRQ

D2R [6] = target: T3, D2R; assay: Radioligand binding assay, [3H]-raclopride displacement
5-HT6 [7] = tested on: 5-HT6; design: method as in Dupuis et al. (2008) [31]; settings: Figure 8; ref Dupuis et al. (2008) [31]; cited from earlier work
5-HT2AR [8] = target: T4, 5-HT2AR; assay: 5-HT2AR function (no method given)
D2 = target: D2; design: method as in Dupuis et al. (2008) [31]; settings: Figure 8; ref Dupuis et al. (2008) [31]; cited from earlier work
5-HT6 [9] = settings: read-out: Ki 5-HT6; Figure 8; ref Dupuis et al. (2008) [31]; cited from earlier work
Human Serotonin 5-HT6R [10] = target: T1, Human Serotonin 5-HT6R; assay: 5-HT6R functional assay, agonistic mode (cAMP, 1321N1 cells); type: cell-based; settings: agonistic mode; read-out: 5-HT6 EC50
Procedure: as §1

[11] = Metabolic stability, incubation with mouse liver microsomes; type: in vitro ADME; settings: MLMs, prolonged incubation
[12] = antagonistic mode, 5-CT 1000 nM, read-out: 5-HT6 Kb
[13] = antagonistic mode, 100 nM quinpirole, read-out: D2 Kb
[14] = Table 1, read-out: pKi 5-HT2A (converted)

T3 sequence (P14416 whole entry): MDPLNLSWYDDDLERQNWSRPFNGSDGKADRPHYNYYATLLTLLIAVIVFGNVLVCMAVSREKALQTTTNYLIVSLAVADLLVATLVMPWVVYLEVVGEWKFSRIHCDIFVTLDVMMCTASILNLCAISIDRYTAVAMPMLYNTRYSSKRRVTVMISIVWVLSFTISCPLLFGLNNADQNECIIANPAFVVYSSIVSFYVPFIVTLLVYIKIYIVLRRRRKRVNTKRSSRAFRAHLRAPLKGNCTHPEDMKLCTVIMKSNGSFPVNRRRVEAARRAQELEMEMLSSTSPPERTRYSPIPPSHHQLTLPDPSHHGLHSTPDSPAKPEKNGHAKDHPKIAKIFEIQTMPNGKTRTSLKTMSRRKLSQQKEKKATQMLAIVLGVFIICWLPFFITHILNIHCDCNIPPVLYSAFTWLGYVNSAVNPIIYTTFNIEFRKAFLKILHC
T2 sequence (P08684 whole entry): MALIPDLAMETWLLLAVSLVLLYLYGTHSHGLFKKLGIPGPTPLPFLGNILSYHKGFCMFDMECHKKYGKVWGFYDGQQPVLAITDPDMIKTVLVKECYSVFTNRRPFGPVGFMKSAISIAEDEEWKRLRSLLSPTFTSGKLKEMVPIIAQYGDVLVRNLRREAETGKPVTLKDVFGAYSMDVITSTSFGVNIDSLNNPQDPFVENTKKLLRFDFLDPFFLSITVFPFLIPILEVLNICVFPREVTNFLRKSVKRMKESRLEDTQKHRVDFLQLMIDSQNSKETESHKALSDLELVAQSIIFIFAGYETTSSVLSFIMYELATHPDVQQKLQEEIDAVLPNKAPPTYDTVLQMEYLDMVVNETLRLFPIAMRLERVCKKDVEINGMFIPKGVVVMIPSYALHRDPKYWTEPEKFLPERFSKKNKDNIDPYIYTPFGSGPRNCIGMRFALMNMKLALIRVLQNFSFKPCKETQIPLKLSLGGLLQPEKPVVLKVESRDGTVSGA
T1 sequence (P50406 whole entry): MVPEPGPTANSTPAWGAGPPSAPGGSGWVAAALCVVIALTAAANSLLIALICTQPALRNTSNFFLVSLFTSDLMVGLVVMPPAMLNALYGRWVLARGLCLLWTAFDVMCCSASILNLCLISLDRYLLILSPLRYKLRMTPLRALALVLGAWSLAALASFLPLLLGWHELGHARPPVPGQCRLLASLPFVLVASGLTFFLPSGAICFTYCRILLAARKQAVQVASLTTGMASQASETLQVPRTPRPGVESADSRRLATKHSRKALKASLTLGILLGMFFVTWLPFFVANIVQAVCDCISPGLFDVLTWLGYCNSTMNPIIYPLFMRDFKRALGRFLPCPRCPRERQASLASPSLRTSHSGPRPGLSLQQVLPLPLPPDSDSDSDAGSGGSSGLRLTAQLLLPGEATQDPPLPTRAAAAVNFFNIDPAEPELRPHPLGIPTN
5-HT6R, sequence (P50406 whole entry): as above
5-HT7R, sequence (P34969 1-432): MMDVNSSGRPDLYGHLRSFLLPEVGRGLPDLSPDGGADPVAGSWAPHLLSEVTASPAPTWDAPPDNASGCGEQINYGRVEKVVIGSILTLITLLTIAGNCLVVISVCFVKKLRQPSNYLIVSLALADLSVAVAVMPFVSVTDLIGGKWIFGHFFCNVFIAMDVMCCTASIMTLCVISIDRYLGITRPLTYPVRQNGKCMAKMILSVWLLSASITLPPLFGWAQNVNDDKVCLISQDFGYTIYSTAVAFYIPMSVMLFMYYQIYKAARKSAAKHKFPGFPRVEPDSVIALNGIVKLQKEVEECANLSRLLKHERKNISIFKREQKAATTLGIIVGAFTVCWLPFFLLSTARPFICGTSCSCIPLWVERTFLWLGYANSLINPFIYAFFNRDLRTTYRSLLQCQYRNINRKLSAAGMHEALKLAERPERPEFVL
T4 sequence (P28223 whole entry): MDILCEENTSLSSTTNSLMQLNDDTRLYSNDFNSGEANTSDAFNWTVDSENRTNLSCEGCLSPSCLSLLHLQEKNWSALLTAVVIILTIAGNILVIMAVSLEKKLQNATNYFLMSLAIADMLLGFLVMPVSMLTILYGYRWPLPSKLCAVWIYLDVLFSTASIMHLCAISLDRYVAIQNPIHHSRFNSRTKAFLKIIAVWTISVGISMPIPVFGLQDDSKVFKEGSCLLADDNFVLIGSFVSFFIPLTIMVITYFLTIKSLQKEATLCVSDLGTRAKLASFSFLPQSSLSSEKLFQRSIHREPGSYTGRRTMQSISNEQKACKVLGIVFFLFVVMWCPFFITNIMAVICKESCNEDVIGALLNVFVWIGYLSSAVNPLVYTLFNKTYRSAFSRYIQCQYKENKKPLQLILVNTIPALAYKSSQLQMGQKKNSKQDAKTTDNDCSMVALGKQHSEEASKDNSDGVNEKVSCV

Row | Structure (SMILES) | Kb (Human Serotonin 5-HT6R [1]; [12]) [nM] | Metabolic Pathway, metabolite M1 [2] | effect on CYP3A4 activity (CYP3A4) | HepG2 cell viability (HepG2 cell line) | effect on HepG2 proliferation in words (HepG2 cell line) | permeability in words [3] | Papp at 5 h, 200 µM (in vitro) [×10⁻⁶ cm/s] | Kb (D2R [4]; [13]) [nM] | Ki (5-HT2AR [5]; [14]) [nM] | Ki (5-HT6R; Ki 5-HT6, Figure 8) [nM] | Ki (5-HT6R; pKi 5-HT6, Table 1) [nM] | Ki (5-HT7R) [nM] | Ki (5-HT1AR; pKi 5-HT1A, Table 1) [nM] | Ki (D2R [6]; Ki D2, Figure 8) [nM] | Ki (D2R [6]; pKi D2, Table 1) [nM] | Kb (5-HT6 [7]) [nM] | also measured
1 | Clc1ccc2c(CNCCc3c[nH]c4ccccc34)c[nH]c2c1 [Compound 14] | 112 | hydroxylation hydroxylation | only slightly inhibited | ~ 80 % of the control | slight antiproliferative effect | medium permeability coefficients | 8.34 ± 1.33 | 290 | 468 | 90 | 89.1 | 15800 | 1070 | 124 | 123 |  | Metabolic Pathway, metabolite M2 [2]: hydroxylation hydroxylation
3 | c1ccc2c(CCNCc3c[nH]c4ccccc34)c[nH]c2c1 [Compound 1, [2-(1H-indol-3-yl)ethyl][(1H-indol-3-yl)methyl]amine] | 151 |  |  |  |  |  |  |  |  | 172 | 174 | 28800 | 1510 |  |  |  | 5-HT2AR function in words (5-HT2AR [8]): 5-HT2AR partial agonist; Ki (5-HT2AR [5]; Ki 5-HT2A): 20 nM; Ki (5-HT2AR [5]; pKi 5-HT2A, Table 1): 20 nM; pKi D2 (D2R [6]; Table 1): 7.22
4 | CCn1cc(C(=O)O)c(=O)c2cc(F)c(N3CCNCC3)cc21 [Norfloxacin, norfloxacin, reference compound] |  |  |  |  |  |  |  |  |  |  |  |  |  |  |  |  | PAMPA Pe ± SD ([3]; 5 h, 200 µM, pH 7.4): 0.56 10^−6 cm/s
5 | Clc1cccc2c(CNCCc3c[nH]c4ccccc34)c[nH]c12 [Compound 17] | 234 | hydroxylation hydroxylation | only slightly inhibited | ~ 80 % of the control | slight antiproliferative effect | medium permeability coefficients | 8.42 ± 0.27 | 215 | 3890 |  | 363 | 1070 | 282 | 51 | 51.3 |  | Metabolic Pathway, metabolite M2 [2]: hydroxylation hydroxylation
6 | O=C1Cc2cc(CCN3CCN(c4nsc5ccccc45)CC3)c(Cl)cc2N1 [Ziprasidone] |  |  |  |  |  |  |  |  |  |  |  |  |  |  |  | 57.5 | Ki (D2): 0.8 nM; Ki (5-HT6 [9]): 20 nM
7 | Clc1ccc2c(CCNCc3c[nH]c4ccccc34)c[nH]c2c1 [Compound 5] | 136 | hydroxylation | inducer of CYP3A4 | ~ 80 % of the control | slight antiproliferative effect | medium permeability coefficients | 7.09 ± 1.24 | 104 | 1170 |  |  | 15800 | 3310 | 155 | 155 |  | EC50 (Human Serotonin 5-HT6R [10]): 157 nM; number of hydroxylated metabolites [11]: only one hydroxylated metabolite; EC50 (D2R [4]; read-out: EC50 (D2 receptor, antagonistic function)): 104 nM
8 | Fc1ccc2c(CNCCc3c[nH]c4ccccc34)c[nH]c2c1 [Compound 13] |  |  |  |  |  |  |  |  |  | 225 | 224 | 18200 |  | 299 | 302 |  | Kb (Human Serotonin 5-HT6R [1]): 30 nM; EC50 (D2R [4]): 91 nM; Kb (D2R [4]): 91 nM; Ki (5-HT2AR [5]; pKi 5-HT2A, Table 1): 2570 nM; Ki (5-HT1AR): 1350 nM
